Several values for one entry are separate records, joined by “and”; a condition that tells them apart may be missing. Identical values can stand only once. Like-named read-outs stand apart in the source and are kept apart here.
Tests used:
Experiment in all cases: 10-day Cell Titre Glo combination screen
Format in all cases: cell-based
CAL-51 = conditions: Homo sapiens; CAL-51 breast; monotherapy; read-out: mono AC50
Description: (§1) The Highest Single Agent (HSA) model is used to determine a combination's synergy score (and is based simply on the intuition that if a combination's effect exceeds the effect level of each of its constituents, there must be some combination interaction). Mathematically, the HSA model describes simple superposition of the single agent curves:
(§2) where CX,Y are the concentrations of the X and Y compound, and IX and IY are inhibitions of the single agents at CX,Y. It is also useful to calculate a volume score (HSA Volume) between the data and the HSA surface to characterise the overall strength of combination effects. Empirically derived combination matrices are compared to their respective HSA additivity models constructed from experimentally collected single agent dose response curves. Summation of this excess additivity across the dose response matrix is referred to HSA Volume.
(§3) Potency shifting can also be scored using combination index (CI). For a chosen iso-effect level (ICut), CI is calculated as: […]
(§4) where (CX/ECX) for a particular data point is the ratio of the X compound's measured concentration to its effective concentration at the chosen effect level. The CI is a rough estimate of how much drug was needed in combination relative to the single agent doses required to achieve the chosen effect level. CI values in the range of 0.5-0.7 are typical for in vitro measurements of current clinical combinations. The CI error (σCI) is calculated using standard error propagation through the CI calculation based on the isobologram errors.
(§5) This combination screen was a 10-day assay using Cell Titre Glo as the readout for viability.
(§6) The assay was performed in 384 well plates, with 1 cell line and 4 drug-drug combinations per plate dosed in a 6×6 matrix. A day zero reading was measured to determine growth inhibition. GenedataScreener was used to input the raw values for every well, and the software was programmed to normalise the values to the day zero and DMSO control values.
(§7) The CellTiter-Glo® Luminescent Cell Viability Assay is a homogeneous method to determine the number of viable cells in culture based on quantitation of the ATP present, which signals the presence of metabolically active cells. It relies on the properties of a proprietary thermostable luciferase (Ultra-Glo™ Recombinant Luciferase), which generates a stable “glow-type” luminescent signal and improves performance across a wide range of assay conditions.
(§8) The following information was reported: Synergy scores (HSA); combination index values; AC50 (half-maximal activity concentration) monotherapy values.

NCI-H1993 = conditions: Homo sapiens; NCI-H1993 lung; monotherapy; read-out: mono AC50
Description: as §1, §2, §3, §4, §5, §6, §7, §8

NCI-H441 = conditions: Homo sapiens; NCI-H441 lung; monotherapy; read-out: mono AC50
Description: as §1, §2, §3, §4, §5, §6, §7, §8

HCC1187 = conditions: Homo sapiens; HCC1187 breast; monotherapy; read-out: mono AC50
Description: as §1, §2, §3, §4, §5, §6, §7, §8

A549 = conditions: Homo sapiens; A549 lung; monotherapy; read-out: mono AC50
Description: as §1, §2, §3, §4, §5, §6, §7, §8

NCI-H2009 = conditions: Homo sapiens; NCI-H2009 lung; monotherapy; read-out: mono AC50
Description: as §1, §2, §3, §4, §5, §6, §7, §8

HCC15 = HCC15 lung; monotherapy; read-out: mono AC50
Description: as §1, §2, §3, §4, §5, §6, §7, §8

HCC1954 = conditions: Homo sapiens; HCC1954 breast; monotherapy; read-out: mono AC50
Description: as §1, §2, §3, §4, §5, §6, §7, §8

HCC1143 = conditions: Homo sapiens; HCC1143 breast; monotherapy; read-out: mono AC50
Description: as §1, §2, §3, §4, §5, §6, §7, §8

MCF7 = conditions: Homo sapiens; MCF7 breast; monotherapy; read-out: mono AC50
Description: as §1, §2, §3, §4, §5, §6, §7, §8

DMS53 = conditions: Homo sapiens, DMS-53; DMS53 lung; monotherapy; read-out: mono AC50
Description: as §1, §2, §3, §4, §5, §6, §7, §8

NCI-H1395 = conditions: monotherapy, read-out: mono AC50
Description: as §1, §2, §3, §4, §5, §6, §7, §8

PC-9 = conditions: Homo sapiens; PC-9 lung; monotherapy; read-out: mono AC50
Description: as §1, §2, §3, §4, §5, §6, §7, §8

BT-20 = conditions: Homo sapiens; BT-20 breast; monotherapy; read-out: mono AC50
Description: as §1, §2, §3, §4, §5, §6, §7, §8

SW1573 = conditions: Homo sapiens; SW1573 lung; monotherapy; read-out: mono AC50
Description: as §1, §2, §3, §4, §5, §6, §7, §8

BT474C1 = BT474C1 breast; monotherapy; read-out: mono AC50
Description: as §1, §2, §3, §4, §5, §6, §7, §8

NCI-H1373 = conditions: Homo sapiens; NCI-H1373 lung; monotherapy; read-out: mono AC50
Description: as §1, §2, §3, §4, §5, §6, §7, §8

NCI-H810 = conditions: Homo sapiens; NCI-H810 lung; monotherapy; read-out: mono AC50
Description: as §1, §2, §3, §4, §5, §6, §7, §8

NCI-H1299 = conditions: Homo sapiens; NCI-H1299 lung; monotherapy; read-out: mono AC50
Description: as §1, §2, §3, §4, §5, §6, §7, §8

ZR-75-1 = conditions: Homo sapiens; ZR-75-1 breast; monotherapy; read-out: mono AC50
Description: as §1, §2, §3, §4, §5, §6, §7, §8

MDA-MB-468 = conditions: Homo sapiens; MDA-MB-468 breast; monotherapy; read-out: mono AC50
Description: as §1, §2, §3, §4, §5, §6, §7, §8

NCI-H3122 = conditions: monotherapy, read-out: mono AC50
Description: as §1, §2, §3, §4, §5, §6, §7, §8

LU99 = conditions: Homo sapiens, Lu-99; LU99 lung; monotherapy; read-out: mono AC50
Description: as §1, §2, §3, §4, §5, §6, §7, §8

HCC1806 = conditions: Homo sapiens; HCC1806 breast; monotherapy; read-out: mono AC50
Description: as §1, §2, §3, §4, §5, §6, §7, §8

NCI-H2085 = NCI-H2085 lung; monotherapy; read-out: mono AC50
Description: as §1, §2, §3, §4, §5, §6, §7, §8

Work on `C[C@@H]1COCCN1c1cc(C2([S@](C)(=N)=O)CC2)nc(-c2ccnc3[nH]ccc23)n1` [AZD6738, 4-{4-[(3R)-3-Methylmorpholin-4-yl]-6-[1-((R)—S-methylsulfonimidoyl)cyclopropyl]pyrimidin-2-yl}-1H-pyrrolo[2,3-b]-pyridine] yielded an AC50 (CAL-51) of 1.36 µM, an AC50 (NCI-H1993) of 2.97 µM and an AC50 (NCI-H441) of 2.96 µM. The AC50 (HCC1187) was 0.531 µM, the AC50 (A549) was 3.11 µM and the AC50 (NCI-H2009) was 1.02 µM. It also gave an AC50 (HCC15) of 7.02 µM, an AC50 (HCC1954) of 2.56 µM and an AC50 (HCC1143) of 0.46 µM. For the same molecule, the AC50 (MCF7) was 1.12 µM, the AC50 (DMS53) was 2.18 µM and the AC50 (NCI-H1395; Homo sapiens, NCI-H1395, NCI-H1395 lung) was 3.31 µM. The AC50 (NCI-H1395; NCI-H1395 lung) was 2.9 µM, the AC50 (PC-9) was 0.51 µM and the AC50 (BT-20) was 0.723 µM. It also gave an AC50 (SW1573) of 3.65 µM, an AC50 (BT474C1) of 3.83 µM and an AC50 (NCI-H1373) of 1.24 µM. It also gave an AC50 (NCI-H810) of 3.35 µM, an AC50 (NCI-H1299) of 3.18 µM and an AC50 (ZR-75-1) of 6.03 µM. For the same molecule, the AC50 (MDA-MB-468) was 2.31 µM, the AC50 (NCI-H3122; Homo sapiens, NCI-H3122, NCI-H3122 lung) was 3.12 µM and the AC50 (NCI-H3122; NCI-H3122 lung) was 3.21 µM. For the same molecule, the AC50 (LU99) was 0.581 µM, the AC50 (HCC1806) was 0.412 µM and the AC50 (NCI-H2085) was 4.75 µM and 5.49 µM.
